According to ChEMBL document CHEMBL1201862, “PubChem BioAssay data set” (2004):
Calls of active or inactive are those of the source.

Tests used:
[1] = molecular target: Induced myeloid leukemia cell differentiation protein Mcl-1 (Homo sapiens, UniProt Q07820); type: functional
[2] = molecular target: T1, Mannose-6-phosphate isomerase (Homo sapiens, UniProt P34949); assay: MPI inhibition at elevated mannose 6-phosphate – biochemical, fluorescence intensity, high mannose 6-phosphate, primary screen (AID 1220)
T1 sequence (P34949 whole entry): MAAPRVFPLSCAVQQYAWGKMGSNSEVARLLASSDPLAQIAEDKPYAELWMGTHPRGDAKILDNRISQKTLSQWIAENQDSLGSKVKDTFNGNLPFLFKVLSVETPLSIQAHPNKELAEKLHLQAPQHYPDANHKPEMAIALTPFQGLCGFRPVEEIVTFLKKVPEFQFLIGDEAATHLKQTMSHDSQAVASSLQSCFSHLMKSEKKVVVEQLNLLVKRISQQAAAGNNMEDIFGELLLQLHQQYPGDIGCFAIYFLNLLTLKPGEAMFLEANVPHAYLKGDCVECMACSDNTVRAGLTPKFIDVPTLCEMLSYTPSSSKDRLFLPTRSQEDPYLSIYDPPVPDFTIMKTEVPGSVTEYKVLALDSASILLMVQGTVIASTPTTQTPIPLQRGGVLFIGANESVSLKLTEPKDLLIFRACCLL

[3] = molecular target: Glucose-6-phosphate 1-dehydrogenase (Homo sapiens, UniProt P11413); assay: inhibition of Homo sapiens G6PD, dose series – biochemical, fluorescence, selectivity assay for P. falciparum G6PD inhibitor project, dose response (AID 504792); type: functional
Chain of Glucose-6-phosphate 1-dehydrogenase (P11413 whole entry): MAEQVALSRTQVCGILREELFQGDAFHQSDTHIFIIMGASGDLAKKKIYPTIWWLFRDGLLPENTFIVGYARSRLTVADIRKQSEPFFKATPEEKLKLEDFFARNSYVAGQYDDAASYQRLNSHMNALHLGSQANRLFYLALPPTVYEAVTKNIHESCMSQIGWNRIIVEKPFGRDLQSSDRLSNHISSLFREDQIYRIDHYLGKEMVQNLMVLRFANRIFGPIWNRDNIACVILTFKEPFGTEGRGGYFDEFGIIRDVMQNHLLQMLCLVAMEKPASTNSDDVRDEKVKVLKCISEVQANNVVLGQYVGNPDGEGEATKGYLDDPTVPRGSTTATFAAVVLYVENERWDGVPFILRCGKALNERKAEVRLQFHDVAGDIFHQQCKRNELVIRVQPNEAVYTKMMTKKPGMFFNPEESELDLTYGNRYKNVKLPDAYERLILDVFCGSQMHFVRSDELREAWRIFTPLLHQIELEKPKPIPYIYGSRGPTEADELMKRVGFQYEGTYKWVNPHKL

[4] = molecular target: Eukaryotic translation initiation factor 4E (Mus musculus, UniProt P63073); assay: blockers of eIF4G binding by eIF4E – biochemical, TR-FRET, dose response (AID 855); type: functional;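 note: potency for disrupting eIF4E binding to eIF4GI seen as loss of FRET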
Chain of Eukaryotic translation initiation factor 4E (P63073 whole entry): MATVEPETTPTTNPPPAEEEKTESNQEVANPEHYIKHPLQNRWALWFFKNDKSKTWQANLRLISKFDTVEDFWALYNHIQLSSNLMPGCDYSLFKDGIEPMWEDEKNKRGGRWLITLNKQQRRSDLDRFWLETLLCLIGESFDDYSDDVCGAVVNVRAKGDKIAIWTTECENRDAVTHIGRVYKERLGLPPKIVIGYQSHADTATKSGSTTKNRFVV

[5] = molecular target: UDP-galactopyranose mutase (Mycobacterium tuberculosis, UniProt P9WIQ1); assay: Inhibitors of Mycobacterium tuberculosis UDP-galactopyranose mutase (UGM) enzyme Measured in Biochemical System Using Plate Reader - 2105-02_Inhibitor_Dose_CherryPick_Activity. [Related pubchem assays (depositor defined):AID504439]
Chain of UDP-galactopyranose mutase (P9WIQ1 whole entry): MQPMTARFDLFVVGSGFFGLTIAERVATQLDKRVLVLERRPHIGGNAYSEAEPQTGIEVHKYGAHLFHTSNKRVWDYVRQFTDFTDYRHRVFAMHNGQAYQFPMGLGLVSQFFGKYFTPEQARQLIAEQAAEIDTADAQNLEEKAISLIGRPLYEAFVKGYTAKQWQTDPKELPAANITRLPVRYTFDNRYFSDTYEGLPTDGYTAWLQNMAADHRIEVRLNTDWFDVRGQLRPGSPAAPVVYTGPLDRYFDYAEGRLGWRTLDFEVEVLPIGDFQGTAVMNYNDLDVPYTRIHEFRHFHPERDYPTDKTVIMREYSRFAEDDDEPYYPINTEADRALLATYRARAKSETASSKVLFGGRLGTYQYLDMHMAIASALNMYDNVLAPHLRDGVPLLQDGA

INS1 = assay: INS-1E survival protection against cytokine death – cell-based, luminescence, retest, dose response (AID 449756); type: functional; details: Rattus norvegicus;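 note: cell death triggered by IL-1 beta plus TNF-alpha plus IFN-gamma mixture; protective hits raise ATP signal compared with cytokine alone wells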
[6] = molecular target: T2, Long-chain-fatty-acid--AMP ligase FadD28 (Mycobacterium tuberculosis, UniProt P9WQ59); assay: Fluorescence polarization aasay to screen for inhibitors that compete for the binding of FadD28 to a bisubstrate Measured in Biochemical System Using Plate Reader - 2147-01_Inhibitor_Dose_CherryPick_Activity.; type: functional, Mycobacterium tuberculosis H37Rv
T2 sequence (P9WQ59 whole entry): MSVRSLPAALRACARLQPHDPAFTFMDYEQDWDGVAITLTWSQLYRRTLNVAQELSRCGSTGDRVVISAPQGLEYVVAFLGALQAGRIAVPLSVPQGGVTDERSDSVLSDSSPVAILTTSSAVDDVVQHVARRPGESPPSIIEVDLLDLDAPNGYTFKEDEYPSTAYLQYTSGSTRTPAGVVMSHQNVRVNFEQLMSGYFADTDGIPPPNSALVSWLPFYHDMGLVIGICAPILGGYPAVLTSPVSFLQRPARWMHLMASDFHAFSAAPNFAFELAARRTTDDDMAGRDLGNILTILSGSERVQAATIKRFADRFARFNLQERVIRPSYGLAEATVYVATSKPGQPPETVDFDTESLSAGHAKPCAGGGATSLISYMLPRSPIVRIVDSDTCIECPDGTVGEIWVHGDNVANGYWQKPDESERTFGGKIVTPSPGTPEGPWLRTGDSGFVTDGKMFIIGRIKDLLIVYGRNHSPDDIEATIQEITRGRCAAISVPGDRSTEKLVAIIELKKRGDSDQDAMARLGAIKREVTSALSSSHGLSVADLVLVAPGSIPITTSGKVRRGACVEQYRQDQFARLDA

[7] = viability loss in THP-1 monocytes – THP-1 cells, cytotoxicity control for Vif-APOBEC3G degradation inhibitor project, dose response (AID 1117359); type: functional; details: THP-1
[8] = molecular target: Luciferin 4-monooxygenase (Photinus pyralis, UniProt P08659); assay: inhibition of purified Photinus pyralis luciferase – biochemical, luminescence, dose response (AID 1891)
[9] = Luminescence Cell-Based Dose Confirmation HTS to Identify Inhibitors of Platelet Dense Granule Release. [Related pubchem assays: 1663 (Primary HTS), 1678 (Summary of Project)]; type: functional
[10] = PAR1 agonist-induced platelet activation inhibition – cell-based, fluorescence, flow cytometry, human platelets, dose response (AID 2511); type: functional
[11] = Luminescence Cell-Based Dose Response Follow up to Identify Inhibitors of Platelet Dense Granule Release. [Related pubchem assays (depositor defined):AID1663, AID1678, AID1889, AID2519]; type: functional
[12] = molecular target: Sphingosine 1-phosphate receptor 2 (Homo sapiens, UniProt O95136); assay: Dose Response Cell Based Assay for Antagonists of the S1P2 Receptor. [Related pubchem assays: 856, 736 ]; type: functional
Chain of Sphingosine 1-phosphate receptor 2 (O95136 whole entry): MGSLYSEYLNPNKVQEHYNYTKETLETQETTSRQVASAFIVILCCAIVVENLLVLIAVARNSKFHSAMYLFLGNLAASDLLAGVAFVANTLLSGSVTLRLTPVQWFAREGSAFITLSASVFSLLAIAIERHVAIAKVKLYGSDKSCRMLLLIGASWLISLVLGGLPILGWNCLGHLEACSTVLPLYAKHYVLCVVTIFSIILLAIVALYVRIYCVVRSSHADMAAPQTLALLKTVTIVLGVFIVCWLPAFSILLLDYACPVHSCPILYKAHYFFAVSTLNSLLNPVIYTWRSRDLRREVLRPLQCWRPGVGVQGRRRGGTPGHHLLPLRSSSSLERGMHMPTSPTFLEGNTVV

[13] = viability of PTEN-deleted HCT116 cells – cell-based, HCT116 PTEN knockout, dose response (AID 1047); type: functional;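 note: HCT116 colon tumor cells with PTEN knocked out; cells exposed to compound for 60 hours before readout; potency for loss of cell viability measured by luminescence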
[14] = viability of HCT116 lacking mutant beta-catenin – cell-based, human colon tumor, dose response (AID 1045); type: functional;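 note: HCT116 colon tumor cells with beta catenin knocked out; cells exposed to compound for 60 hours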
[15] = THP-1 cell cytotoxicity, dose response, cytotoxicity control for non-replicating M. tuberculosis project (AID 489025); type: functional
[16] = Vero E6 cell cytotoxicity, dose response, cytotoxicity control for non-replicating M. tuberculosis project, secondary assay (AID 492998); type: functional, VeroE6; details: Vero C1008
cells = type: functional
[17] = molecular target: Heat shock protein HSP 90-alpha (Homo sapiens, UniProt P07900); type: functional, organism-based
[18] = molecular target: T3, High affinity choline transporter 1 (Homo sapiens, UniProt Q9GZV3); assay: human choline transporter blockers, potency – cell-based, 5-point CRC, membrane potential dye, dose response (AID 504840); type: functional
T3 sequence (Q9GZV3 whole entry): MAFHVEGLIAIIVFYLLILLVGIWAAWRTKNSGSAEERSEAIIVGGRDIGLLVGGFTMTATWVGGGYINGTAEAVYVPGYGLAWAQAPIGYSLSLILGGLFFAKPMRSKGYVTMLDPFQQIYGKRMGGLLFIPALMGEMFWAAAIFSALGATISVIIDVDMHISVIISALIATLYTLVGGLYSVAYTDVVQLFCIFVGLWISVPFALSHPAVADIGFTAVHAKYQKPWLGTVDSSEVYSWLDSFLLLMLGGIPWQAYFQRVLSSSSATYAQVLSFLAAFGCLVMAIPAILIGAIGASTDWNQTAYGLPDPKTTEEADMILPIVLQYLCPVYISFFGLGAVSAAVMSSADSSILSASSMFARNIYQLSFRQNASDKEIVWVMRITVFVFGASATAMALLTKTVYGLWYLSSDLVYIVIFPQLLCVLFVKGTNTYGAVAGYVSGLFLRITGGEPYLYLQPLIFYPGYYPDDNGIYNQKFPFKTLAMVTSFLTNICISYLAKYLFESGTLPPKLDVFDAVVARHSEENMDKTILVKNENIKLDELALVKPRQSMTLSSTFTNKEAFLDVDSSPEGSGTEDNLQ

[19] = molecular target: Delta-type opioid receptor (Homo sapiens, UniProt P41143); assay: Counterscreen for agonists of heterodimerization of the mu 1 (OPRM1) and delta 1 (OPRD1) opioid receptors: Luminescence-based cell-based high throughput dose response assay to identify agonists of OPRD1 homodimerization. [Related pubchem assays (depositor defined):AID504326, AID504355, AID504692, AID504904, AID504905]; type: functional
Chain of Delta-type opioid receptor (P41143 whole entry): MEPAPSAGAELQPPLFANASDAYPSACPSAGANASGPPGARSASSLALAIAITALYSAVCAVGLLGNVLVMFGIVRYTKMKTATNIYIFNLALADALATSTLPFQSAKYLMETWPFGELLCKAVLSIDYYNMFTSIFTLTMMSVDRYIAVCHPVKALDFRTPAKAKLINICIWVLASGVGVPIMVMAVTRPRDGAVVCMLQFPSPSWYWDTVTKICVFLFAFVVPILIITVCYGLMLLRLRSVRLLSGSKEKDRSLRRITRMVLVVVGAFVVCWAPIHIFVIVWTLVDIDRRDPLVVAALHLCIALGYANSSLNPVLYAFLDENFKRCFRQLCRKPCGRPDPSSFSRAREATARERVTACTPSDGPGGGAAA

Mu-type opioid receptor = Mu-type opioid receptor (Homo sapiens, UniProt P35372); assay: Counterscreen for agonists of heterodimerization of the mu 1 (OPRM1) and delta 1 (OPRD1) opioid receptors: Luminescence-based cell-based high throughput dose response assay to identify agonists of OPRM1 homodimerization.; type: functional;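 note: U2OS cells expressing OPRM1 and beta-arrestin as split beta-galactosidase partners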
Chain of Mu-type opioid receptor (P35372 whole entry): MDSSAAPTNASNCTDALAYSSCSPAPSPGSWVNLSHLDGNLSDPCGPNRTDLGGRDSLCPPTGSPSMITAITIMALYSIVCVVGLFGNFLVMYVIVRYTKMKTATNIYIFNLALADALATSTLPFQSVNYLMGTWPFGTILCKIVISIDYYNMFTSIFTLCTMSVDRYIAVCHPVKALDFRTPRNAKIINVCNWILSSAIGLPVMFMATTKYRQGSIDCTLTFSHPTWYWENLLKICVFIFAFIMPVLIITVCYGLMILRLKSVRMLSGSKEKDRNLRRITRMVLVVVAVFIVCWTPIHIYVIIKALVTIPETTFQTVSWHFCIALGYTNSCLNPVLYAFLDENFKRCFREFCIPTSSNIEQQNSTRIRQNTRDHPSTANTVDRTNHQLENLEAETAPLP

[20] = molecular target: 5-hydroxytryptamine receptor 5A (Homo sapiens, UniProt P47898); assay: Counterscreen for agonists of OPRM1-OPRD1 heterodimerization: luminescence-based cell-based high throughput dose response assay to identify agonists of 5-hydroxytryptamine (serotonin) 5A receptor (HTR5A). [Related pubchem assays (depositor defined):AID504326, AID504355, AID504692, AID504904, AID504905]; type: functional
Chain of 5-hydroxytryptamine receptor 5A (P47898 whole entry): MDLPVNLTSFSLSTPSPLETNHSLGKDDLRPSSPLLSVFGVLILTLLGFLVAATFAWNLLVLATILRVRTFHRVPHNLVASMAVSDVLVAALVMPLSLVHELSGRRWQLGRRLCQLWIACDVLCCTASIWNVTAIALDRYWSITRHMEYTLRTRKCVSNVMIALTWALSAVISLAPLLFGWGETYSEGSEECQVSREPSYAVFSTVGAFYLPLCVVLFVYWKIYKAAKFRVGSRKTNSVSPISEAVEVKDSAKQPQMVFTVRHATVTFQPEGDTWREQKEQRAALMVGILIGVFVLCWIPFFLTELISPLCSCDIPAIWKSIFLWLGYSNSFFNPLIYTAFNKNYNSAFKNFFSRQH

HEK293 = assay: cells; type: functional, cell-based; details: Homo sapiens
[21] = molecular target: Nuclear receptor subfamily 0 group B member 1 (Homo sapiens, UniProt P51843); assay: Luminescence-based cell-based high throughput dose response assay for inhibitors of the orphan nuclear receptor subfamily 0, group B, member 1 (DAX1; NR0B1). [Related pubchem assays (depositor defined):AID504766, AID504790]; type: functional
Chain of Nuclear receptor subfamily 0 group B member 1 (P51843 whole entry): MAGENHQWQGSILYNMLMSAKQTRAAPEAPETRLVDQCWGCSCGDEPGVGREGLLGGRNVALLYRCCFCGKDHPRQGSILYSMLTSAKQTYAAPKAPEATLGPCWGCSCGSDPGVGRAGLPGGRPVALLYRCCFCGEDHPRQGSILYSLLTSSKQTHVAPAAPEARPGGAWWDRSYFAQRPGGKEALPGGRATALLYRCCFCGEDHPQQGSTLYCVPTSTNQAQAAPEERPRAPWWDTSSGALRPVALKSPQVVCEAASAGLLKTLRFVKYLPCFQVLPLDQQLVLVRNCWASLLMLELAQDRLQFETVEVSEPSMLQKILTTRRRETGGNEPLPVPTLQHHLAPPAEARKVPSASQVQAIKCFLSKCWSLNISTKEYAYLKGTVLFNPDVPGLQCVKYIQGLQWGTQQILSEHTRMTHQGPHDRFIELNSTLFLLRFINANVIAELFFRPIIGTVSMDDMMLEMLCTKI

[22] = molecular target: Voltage-gated inwardly rectifying potassium channel KCNH2 (Homo sapiens, UniProt Q12809); details: Potency;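 note: confirmatory quantitative high-throughput screen measuring inhibition of hERG channel activity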
Chain of Voltage-gated inwardly rectifying potassium channel KCNH2 (Q12809 whole entry): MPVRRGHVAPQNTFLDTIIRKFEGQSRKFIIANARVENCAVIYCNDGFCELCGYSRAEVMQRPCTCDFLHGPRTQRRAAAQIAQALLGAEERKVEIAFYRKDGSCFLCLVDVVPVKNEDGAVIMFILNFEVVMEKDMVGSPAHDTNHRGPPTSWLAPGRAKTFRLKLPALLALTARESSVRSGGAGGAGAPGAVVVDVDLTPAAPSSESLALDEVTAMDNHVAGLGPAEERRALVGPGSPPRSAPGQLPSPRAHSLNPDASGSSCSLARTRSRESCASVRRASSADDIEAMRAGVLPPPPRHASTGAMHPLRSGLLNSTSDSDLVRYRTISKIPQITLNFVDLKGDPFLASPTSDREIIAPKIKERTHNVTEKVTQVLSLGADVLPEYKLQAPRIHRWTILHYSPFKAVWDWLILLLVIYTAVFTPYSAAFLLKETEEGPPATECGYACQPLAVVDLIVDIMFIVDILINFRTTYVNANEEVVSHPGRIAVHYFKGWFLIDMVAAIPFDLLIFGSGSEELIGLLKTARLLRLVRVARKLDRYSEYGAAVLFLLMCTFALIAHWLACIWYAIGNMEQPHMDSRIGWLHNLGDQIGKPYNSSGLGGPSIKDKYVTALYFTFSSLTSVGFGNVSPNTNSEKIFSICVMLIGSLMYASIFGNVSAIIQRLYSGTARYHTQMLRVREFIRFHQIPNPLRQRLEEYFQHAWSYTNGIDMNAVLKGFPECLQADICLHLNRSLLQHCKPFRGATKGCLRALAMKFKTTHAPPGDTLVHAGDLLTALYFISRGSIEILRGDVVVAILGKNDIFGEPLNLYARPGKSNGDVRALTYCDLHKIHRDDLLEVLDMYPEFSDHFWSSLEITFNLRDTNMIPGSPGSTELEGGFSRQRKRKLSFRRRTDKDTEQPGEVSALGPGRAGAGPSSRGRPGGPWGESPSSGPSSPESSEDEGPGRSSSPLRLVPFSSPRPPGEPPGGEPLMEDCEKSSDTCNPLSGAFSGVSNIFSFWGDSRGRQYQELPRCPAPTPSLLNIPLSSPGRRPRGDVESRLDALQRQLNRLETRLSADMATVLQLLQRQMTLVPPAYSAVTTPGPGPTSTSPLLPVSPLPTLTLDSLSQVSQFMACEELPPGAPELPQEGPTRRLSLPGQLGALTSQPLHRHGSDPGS

[23] = molecular target: T4, Tyrosine-protein phosphatase non-receptor type 7 (Homo sapiens, UniProt P35236); type: functional
T4 sequence (P35236 whole entry): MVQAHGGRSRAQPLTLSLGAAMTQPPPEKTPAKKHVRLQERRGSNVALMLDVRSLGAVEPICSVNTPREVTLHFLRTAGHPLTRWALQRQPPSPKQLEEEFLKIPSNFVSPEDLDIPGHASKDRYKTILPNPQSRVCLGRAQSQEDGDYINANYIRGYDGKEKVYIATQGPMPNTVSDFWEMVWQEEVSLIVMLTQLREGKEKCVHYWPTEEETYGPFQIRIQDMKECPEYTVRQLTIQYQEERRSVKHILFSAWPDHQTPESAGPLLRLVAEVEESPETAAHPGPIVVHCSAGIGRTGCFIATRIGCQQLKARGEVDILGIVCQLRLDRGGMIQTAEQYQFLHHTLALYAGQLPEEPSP

[24] = molecular target: Glyceraldehyde-3-phosphate dehydrogenase (Homo sapiens, UniProt P04406)
Chain of Glyceraldehyde-3-phosphate dehydrogenase (P04406 whole entry): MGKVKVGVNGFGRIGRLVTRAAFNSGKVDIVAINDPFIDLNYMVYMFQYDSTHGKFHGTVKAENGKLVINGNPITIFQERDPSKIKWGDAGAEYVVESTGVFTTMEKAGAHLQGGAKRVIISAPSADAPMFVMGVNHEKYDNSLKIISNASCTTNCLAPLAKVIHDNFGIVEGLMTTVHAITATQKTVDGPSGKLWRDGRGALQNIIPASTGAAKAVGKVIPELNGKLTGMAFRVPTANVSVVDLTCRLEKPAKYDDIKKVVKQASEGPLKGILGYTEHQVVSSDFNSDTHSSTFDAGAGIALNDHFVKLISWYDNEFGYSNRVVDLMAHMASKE

[25] = molecular target: T5, Dual specificity protein phosphatase 6 (Rattus norvegicus, UniProt Q64346)
T5 sequence (Q64346 whole entry): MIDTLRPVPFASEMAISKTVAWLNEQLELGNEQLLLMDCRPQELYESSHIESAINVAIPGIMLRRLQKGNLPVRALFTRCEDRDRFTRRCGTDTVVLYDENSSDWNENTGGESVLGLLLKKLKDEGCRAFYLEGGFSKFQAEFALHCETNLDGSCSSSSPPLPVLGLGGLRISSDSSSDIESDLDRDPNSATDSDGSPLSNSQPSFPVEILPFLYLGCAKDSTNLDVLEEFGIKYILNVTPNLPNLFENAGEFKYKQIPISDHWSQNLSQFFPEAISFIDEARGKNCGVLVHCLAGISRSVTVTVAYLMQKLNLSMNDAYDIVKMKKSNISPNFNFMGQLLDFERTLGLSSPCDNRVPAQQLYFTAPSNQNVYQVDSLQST

[26] = molecular target: T5, Dual specificity protein phosphatase 6; type: functional

Chain of Induced myeloid leukemia cell differentiation protein Mcl-1 (Q07820 whole entry): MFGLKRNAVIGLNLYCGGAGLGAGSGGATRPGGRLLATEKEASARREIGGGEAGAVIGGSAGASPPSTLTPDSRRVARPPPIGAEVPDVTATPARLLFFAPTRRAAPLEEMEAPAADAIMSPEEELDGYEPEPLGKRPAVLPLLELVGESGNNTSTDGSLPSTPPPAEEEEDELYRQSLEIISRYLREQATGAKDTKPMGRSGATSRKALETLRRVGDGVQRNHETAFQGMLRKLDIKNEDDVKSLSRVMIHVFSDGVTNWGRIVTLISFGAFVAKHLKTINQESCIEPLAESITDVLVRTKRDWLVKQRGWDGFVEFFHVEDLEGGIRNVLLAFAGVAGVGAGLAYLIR

COc1cc(/C=C2\CC/C(=C\c3cc(OC)c(O)c(OC)c3)C2=O)cc(OC)c1O
IC50 [1]: 5.75 µM (active) | IC50 [2]: 24.7 µM (active) | IC50 [3]: > 80 µM (inactive) | IC50 [4]: > 64 µM (inactive) | AC50 [5]: 8.22 µM (active) | AC50 (INS1): 4.41 µM (active) | AC50 [6]: 86.6 µM (active) | CC50 [7]: 3.3 µM (active)

CCCCC(=O)Nc1cccc(NC(=O)c2ccccc2Br)c1
EC50 [8]: > 112 µM (not active) | EC50 [9]: 6.9 µM (active) | EC50 [10]: < 3 µM (active) | EC50 [11]: 500 µM (inactive)

CC1=C/C(=N\OS(=O)(=O)c2ccccc2)C(C)=CC1=O
IC50 [12]: 3.71 µM (active) | EC50 [13]: 14.5 µM (active) | EC50 [14]: 16.4 µM (active) | IC50 [2]: 3.73 µM (active) | CC50 [15]: 12 µM (active) | CC50 [16]: 15.6 µM (active) | IC50 (cells): 3.09 µM (active) | AC50 [17]: 0.554 µM (active) | IC50 [18]: 12.3 µM (active) | EC50 [19]: > 92.5 µM (inactive) | EC50 (Mu-type opioid receptor): > 92.5 µM (inactive) | EC50 [20]: > 92.5 µM (inactive) | AC50 (INS1): 1.17 µM (active)

COc1ccc(-c2csc(Nc3cccc(C)n3)n2)cc1
IC50 (HEK293): > 67.5 µM (inactive) | IC50 [21]: > 67.5 µM (inactive)

CCN(CC)C(=O)N[C@@H]1C[C@@H]2c3cccc4[nH]cc(c34)C[C@H]2N(C)C1
AC50 [22]: 25.1 µM (inconclusive)

Cc1ccccc1Cn1c(=O)n(-c2ccccc2)c(=O)n([C@H](C(=O)O)C(C)C)c1=O
IC50 [23]: > 100 µM (not active) | IC50 [24]: > 100 µM (not active) | IC50 [25]: > 100 µM (inactive) | IC50 [26]: > 100 µM (inactive)
